Tests used:
[1] = molecular target: T1, PPAR-γ (peroxisome proliferator activated receptor gamma) (Homo sapiens, UniProt P37231); details: as described in WO 2010/014889 A2; cited from earlier work
T1 sequence (P37231 1-505): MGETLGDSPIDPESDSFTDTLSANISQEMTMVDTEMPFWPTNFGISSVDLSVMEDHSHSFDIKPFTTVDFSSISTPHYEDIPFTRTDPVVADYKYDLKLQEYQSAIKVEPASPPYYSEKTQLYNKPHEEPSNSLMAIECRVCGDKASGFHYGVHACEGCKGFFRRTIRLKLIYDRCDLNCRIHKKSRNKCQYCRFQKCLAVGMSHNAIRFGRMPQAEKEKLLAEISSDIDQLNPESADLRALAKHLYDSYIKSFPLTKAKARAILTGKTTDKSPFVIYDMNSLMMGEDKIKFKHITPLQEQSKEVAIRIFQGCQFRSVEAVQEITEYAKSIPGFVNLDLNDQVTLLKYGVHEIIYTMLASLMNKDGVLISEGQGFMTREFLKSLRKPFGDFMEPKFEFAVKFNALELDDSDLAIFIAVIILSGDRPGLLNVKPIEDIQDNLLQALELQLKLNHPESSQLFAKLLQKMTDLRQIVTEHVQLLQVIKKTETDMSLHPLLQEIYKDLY

[2] = tested on: human stellate cells; details: in vitro; cited from earlier work
[3] = tested on: hepatocytes; details: in vitro; cited from earlier work
[4] = tested on: fibrotic vascular and tissue remodeling in heart, liver and lung; details: Ang II, hypoxia and obesity models; cited from earlier work
[5] = tested on: long-term NASH diet-induced liver damage; details: NASH diet mice; cited from earlier work
[6] = tested on: Bleomycin-treated 3 mo old C57Bl6 mice; experiment: Reversal of established fibrosis in bleomycin-treated mice; format: in vivo; details: 7.5 mg/kg oral, 2 additional weeks
Description: Nitroalkenes can reverse established fibrosis.

CCCCCC=CC/C(=C\CCCCCCCC(=O)O)[N+](=O)[O-] (stereo in doubt) [10-nitro linoleic acid, (9E,12Z)-10-nitrooctadeca-9,12-dienoic acid]
activation of the PPAR-γ receptor [1]: potent, selective activators

CCCCC/C=C(\C/C=C\CCCCCCCC(=O)O)[N+](=O)[O-] [12-nitro linoleic acid, 12-nitrolinoleic acid]
activation of the PPAR-γ receptor [1]: potent, selective activators

NO2-oleic acid
fibrogenesis [2]: inhibited fibrogenesis | TG biosynthesis and accumulation [3]: inhibited TG biosynthesis and accumulation | activation of the PPAR-γ receptor [1]: nanomolar activators | fibrotic vascular and tissue remodeling [4]: inhibit fibrotic vascular and tissue remodeling | RNA-sequencing analysis of liver tissue [5]: inflammation and fibrosis as major pathways suppressed | SREBPI proteolytic activation and subsequent lipogenesis gene expression [5]: inhibition of SREBPI proteolytic activation and subsequent lipogenesis gene expression | body composition and energy metabolism (CLAMS and NMR-based analysis) [5]: improved body composition and energy metabolism | hepatic triglyceride (TG) accumulation [5]: inhibiting hepatic triglyceride (TG) accumulation | liver steatosis and fibrosis by photoacoustic-ultrasound imaging [5]: robust inhibition of liver steatosis and fibrosis | Ashcroft scoring [6]: decreased collagen deposition | Masson's trichrome and αSMA staining [6]: resolution of pathologic remodeling | qRT-PCR of TGFβ, Col1A1, αSMA, vimentin, MMP7 and E-cadherin expression [6]: inhibition of these pro-fibrotic indices | reversal of fibrosis [6]: significant reversal of fibrosis

Nitro-linoleic acid
activation of the PPAR-γ receptor [1]: nanomolar activators | fibrotic vascular and tissue remodeling [4]: inhibit fibrotic vascular and tissue remodeling

From US20230065014A1, “Nitro-Fatty Acid-Containing Microbubbles and Uses Therefor” (University of Pittsburgh-Of the Commonwealth System of …, priority 2020, published 2023)
